We go through 62 molecules from US20110130397A1, “PYRROLINONE COMPOUNDS AS INHIBITORS OF BACTERIAL PEPTIDYL TRNA HYDROLASE AND USES THEREOF” (priority 2006, published 2011).

A word on the melting point: it is the temperature, or range, at which the solid turns liquid.

“And” between values parts separate entries of the source, which are not always exact repeats. Identical values can stand only once.

On to `CC(=O)C1=C(O)C(=O)N(c2nc3ccc(Cl)cc3s2)C1c1ccc(F)cc1` (centres unmarked) [Compound 420], for which the melting point was in the range of 238 to 239 °C.
`CC(C)(C)C(=O)C1=C(O)C(=O)N(c2nc3ccc(Cl)cc3s2)C1c1ccc(F)cc1` (centres unmarked) [Compound 421]: the melting point was in the range of 239 to 240 °C.
Then `CCOC(=O)C1=C(O)C(=O)N(c2nc3ccc(Cl)cc3s2)C1c1ccc(F)cc1` (centres unmarked) [Compound 422], with 236 to 237 °C; and `CC(=O)C1=C(O)C(=O)N(c2nc3ccc(F)cc3s2)C1c1ccc(F)cc1` (centres unmarked) [Compound 423], with 238 to 239 °C; and `CC(C)(C)C(=O)C1=C(O)C(=O)N(c2nc3ccc(F)cc3s2)C1c1ccc(F)cc1` (centres unmarked) [Compound 424], with 232 to 233 °C.
Then `CCOC(=O)C1=C(O)C(=O)N(c2nc3ccc(F)cc3s2)C1c1ccc(F)cc1` (centres unmarked) [Compound 425], with 218 to 219 °C.
`CC(=O)C1=C(O)C(=O)N(c2nc3c(Cl)cccc3s2)C1c1ccc(F)cc1` (centres unmarked) [Compound 426] yielded a melting point of 231 to 232 °C.
Then `CC(=O)C1=C(O)C(=O)N(c2nc3ccc(Cl)cc3s2)C1c1ccccc1F` (centres unmarked) [Compound 429], with 255 to 256 °C; and `COC1=C(C(C)=O)C(c2ccccc2F)N(c2nc3ccc(Cl)cc3s2)C1=O` (centres unmarked) [Compound 430], with 235 to 236 °C; and `CCOC1=C(C(=O)c2ccc(C)o2)C(c2ccc(O)cc2)N(c2nc3ccccc3n2C)C1=O` (centres unmarked) [Compound 431], with 254 to 255 °C.
With `Cc1ccc(C(=O)C2=C(O)C(=O)N(C3CCCCC3)C2c2ccccc2F)o1` (centres unmarked) [Compound 432] the figure was 195 to 196 °C; with `Cc1ccc(C(=O)C2=C(O)C(=O)N(C3CCC(O)CC3)C2c2ccccc2F)o1` (centres unmarked) [Compound 433], 204 to 206 °C; with `Cc1ccc(C(=O)C2=C(O)C(=O)N(C(CO)CO)C2c2ccccc2F)o1` (centres unmarked) [Compound 434], 74 to 75 °C.
Then `O=C(C1=C(O)C(=O)N(c2nc3ccc(Cl)cc3s2)C1c1ccccc1F)c1nccs1` (centres unmarked) [Compound 435], with 309 to 310 °C; and `O=C(C1=C(O)C(=O)N(c2nc3ccc(Cl)cc3s2)C1c1ccc(F)cc1)c1nccs1` (centres unmarked) [Compound 436], with 310 to 311 °C.
`O=C(C1=C(O)C(=O)N(c2nc3ccc(F)cc3s2)C1c1ccccc1F)c1nccs1` (centres unmarked) [Compound 437] registered a melting point of 298 to 299 °C.
`O=C(C1=C(O)C(=O)N(c2nc3ccc(F)cc3s2)C1c1ccc(F)cc1)c1nccs1` (centres unmarked) [Compound 438] gave a melting point of 320 to 321 °C.
Then `O=C(C1=C(O)C(=O)N(c2nc3c(Cl)cccc3s2)C1c1ccccc1F)c1nccs1` (centres unmarked) [Compound 439], with 320 to 321 °C.
Then `O=C(C1=C(O)C(=O)N(c2nc3c(Cl)cccc3s2)C1c1ccc(F)cc1)c1nccs1` (centres unmarked) [Compound 440], with 303 to 304 °C; and `COCC(=O)C1=C(O)C(=O)N(c2nc3ccc(Cl)cc3s2)C1c1ccccc1F` (centres unmarked) [Compound 441], with 253 to 254 °C; and `COCC(=O)C1=C(O)C(=O)N(c2nc3ccc(Cl)cc3s2)C1c1ccc(F)cc1` (centres unmarked) [Compound 442], with 263 to 264 °C.
With `COCC(=O)C1=C(O)C(=O)N(c2nc3ccc(F)cc3s2)C1c1ccccc1F` (centres unmarked) [Compound 443] the figure was 228 to 229 °C; with `COCC(=O)C1=C(O)C(=O)N(c2nc3ccc(F)cc3s2)C1c1ccc(F)cc1` (centres unmarked) [Compound 444], 249 to 250 °C.
In turn, `COCC(=O)C1=C(O)C(=O)N(c2nc3c(Cl)cccc3s2)C1c1ccccc1F` (centres unmarked) [Compound 445] displayed a melting point of 231 to 233 °C.
Then `O=C(COc1ccccc1)C1=C(O)C(=O)N(c2nc3ccc(Cl)cc3s2)C1c1ccccc1F` (centres unmarked) [Compound 446], with 218 to 219 °C; and `O=C(COc1ccccc1)C1=C(O)C(=O)N(c2nc3ccc(Cl)cc3s2)C1c1ccc(F)cc1` (centres unmarked) [Compound 447], with 203 to 204 °C; and `O=C(COc1ccccc1)C1=C(O)C(=O)N(c2nc3ccc(F)cc3s2)C1c1ccccc1F` (centres unmarked) [Compound 448], with 197 to 198 °C.
With `O=C(COc1ccccc1)C1=C(O)C(=O)N(c2nc3c(Cl)cccc3s2)C1c1ccccc1F` (centres unmarked) [Compound 449] the figure was 131 to 133 °C; with `O=C(COc1ccccc1)C1=C(O)C(=O)N(c2nc3c(Cl)cccc3s2)C1c1ccc(F)cc1` (centres unmarked) [Compound 450], 204 to 206 °C; with `O=C(C1=C(O)C(=O)N(c2nc3ccc(Cl)cc3s2)C1c1ccccc1F)C1CC1` (centres unmarked) [Compound 451], 246 to 247 °C.
With `O=C(C1=C(O)C(=O)N(c2nc3ccc(Cl)cc3s2)C1c1ccc(F)cc1)C1CC1` (centres unmarked) [Compound 452] the figure was 229 to 230 °C; with `O=C(C1=C(O)C(=O)N(c2nc3ccc(Cl)cc3s2)C1c1ccc(Cl)cc1)C1CC1` (centres unmarked) [Compound 453], 245 to 246 °C.
`O=C(C1=C(O)C(=O)N(c2nc3ccc(F)cc3s2)C1c1ccccc1F)C1CC1` (centres unmarked) [Compound 454]: the melting point lay within 234 to 235 °C.
In the case of `O=C(C1=C(O)C(=O)N(c2nc3ccc(F)cc3s2)C1c1ccc(F)cc1)C1CC1` (centres unmarked) [Compound 455], the melting point was in the range of 221 to 223 °C.
Then `O=C(C1=C(O)C(=O)N(c2nc3c(Cl)cccc3s2)C1c1ccccc1F)C1CC1` (centres unmarked) [Compound 456], with 253 to 254 °C.
In turn, `O=C(C1=C(O)C(=O)N(c2nc3c(Cl)cccc3s2)C1c1ccc(F)cc1)C1CC1` (centres unmarked) [Compound 457] yielded a melting point of 218 to 219 °C.
`O=C(COc1ccccc1Cl)C1=C(O)C(=O)N(c2nc3ccc(Cl)cc3s2)C1c1ccc(F)cc1` (centres unmarked) [Compound 458]: the melting point was 196 to 197 °C.
Then `O=C(COc1ccccc1Cl)C1=C(O)C(=O)N(c2nc3ccc(F)cc3s2)C1c1ccc(F)cc1` (centres unmarked) [Compound 459], with 234 to 235 °C; and `O=C(COc1ccccc1Cl)C1=C(O)C(=O)N(c2nc3c(Cl)cccc3s2)C1c1ccc(F)cc1` (centres unmarked) [Compound 460], with 143 to 145 °C.
With `Cc1ccc(C(=O)C2=C(O)C(=O)N(c3nc4ccc(Cl)cc4s3)C2c2ccc(F)c(F)c2)o1` (centres unmarked) [Compound 461, 1-(6-Chlorobenzo[d]thiazol-2-yl)-5-(3,4-difluorophenyl)-3-hydroxy-4-(5-methylfuran-2-carbonyl)-1H-pyrrol-2(5H)-one] the figure was 235 to 236 °C.
Then `Cc1ccc(C(=O)C2=C(O)C(=O)N(c3nc4ccc(F)cc4s3)C2c2ccc(F)c(F)c2)o1` (centres unmarked) [Compound 462], with 223 to 224 °C.
In turn, `Cc1ccc(C(=O)C2=C(O)C(=O)N(c3nc4c(Cl)cccc4s3)C2c2ccc(F)c(F)c2)o1` (centres unmarked) [Compound 463] showed a melting point of 269 to 270 °C.
In turn, `Cc1ccc(C(=O)C2=C(O)C(=O)N(c3nc4ccc(Cl)cc4s3)C2c2ccc(-c3ccccc3)cc2)o1` (centres unmarked) [Compound 464] yielded a melting point of 244 to 245 °C.
With `Cc1ccc(C(=O)C2=C(O)C(=O)N(c3nc4ccc(F)cc4s3)C2c2ccc(-c3ccccc3)cc2)o1` (centres unmarked) [Compound 465], the melting point was 228 to 231 °C.
Then `Cc1ccc(C(=O)C2=C(O)C(=O)N(c3nc4c(Cl)cccc4s3)C2c2ccc(-c3ccccc3)cc2)o1` (centres unmarked) [Compound 466], with 222 to 223 °C; and `Cc1ccc(C(=O)C2=C(O)C(=O)N(c3nc4ccc(Cl)cc4s3)C2c2ccc(Oc3ccccc3)cc2)o1` (centres unmarked) [Compound 467], with 238 to 239 °C; and `Cc1ccc(C(=O)C2=C(O)C(=O)N(c3nc4ccc(F)cc4s3)C2c2ccc(Oc3ccccc3)cc2)o1` (centres unmarked) [Compound 468], with 172 to 173 °C.
Then `Cc1ccc(C(=O)C2=C(O)C(=O)N(c3nc4c(Cl)cccc4s3)C2c2ccc(Oc3ccccc3)cc2)o1` (centres unmarked) [Compound 469], with 208 to 209 °C; and `Cc1ccc(C(=O)C2=C(O)C(=O)N(c3nc4ccc(Cl)cc4s3)C2c2ccc(OCc3ccccc3)cc2)o1` (centres unmarked) [Compound 470], with 196 to 197 °C; and `Cc1ccc(C(=O)C2=C(O)C(=O)N(c3nc4ccc(F)cc4s3)C2c2ccc(OCc3ccccc3)cc2)o1` (centres unmarked) [Compound 471], with 191 to 193 °C.
Then `Cc1ccc(C(=O)C2=C(O)C(=O)N(c3nc4c(Cl)cccc4s3)C2c2ccc(OCc3ccccc3)cc2)o1` (centres unmarked) [Compound 472], with 240 to 241 °C; and `Cc1ccc(C(=O)C2=C(O)C(=O)N(c3nc4ccc(Cl)cc4s3)C2c2cccc(Oc3ccccc3)c2)o1` (centres unmarked) [Compound 473], with 226 to 227 °C; and `Cc1ccc(C(=O)C2=C(O)C(=O)N(c3nc4ccc(Cl)cc4s3)C2c2cccc(OCc3ccccc3)c2)o1` (centres unmarked) [Compound 475], with 215 to 216 °C and 213 to 214 °C.
`Cc1ccc(C(=O)C2=C(O)C(=O)N(c3nc4ccc(F)cc4s3)C2c2cccc(OCc3ccccc3)c2)o1` (centres unmarked) [Compound 476]: the melting point was 187 to 188 °C.
Then `Cc1ccc(C(=O)C2=C(O)C(=O)N(c3nc4ccc(Cl)cc4s3)C2c2ccc(OCCO)cc2)o1` (centres unmarked) [Compound 477], with 209 to 210 °C.
With `Cc1ccc(C(=O)C2=C(O)C(=O)N(c3nc4ccc(F)cc4s3)C2c2ccc(OCCO)cc2)o1` (centres unmarked) [Compound 478] the figure was 134 to 135 °C; with `Cc1ccc(C(=O)C2=C(O)C(=O)N(c3nc4ccc(Cl)cc4s3)C2c2ccc(OCCCN(C)C)cc2)o1` (centres unmarked) [Compound 479], 211 to 213 °C; with `Cc1ccc(C(=O)C2=C(O)C(=O)N(c3nc4ccc(F)cc4s3)C2c2ccc(OCCCN(C)C)cc2)o1` (centres unmarked) [Compound 480], 209 to 211 °C.
Then `COc1ccccc1CC(=O)C1=C(O)C(=O)N(c2nc3ccc(Cl)cc3s2)C1c1ccccc1F` (centres unmarked) [Compound 481], with 186 to 188 °C; and `COc1ccccc1CC(=O)C1=C(O)C(=O)N(c2nc3ccc(F)cc3s2)C1c1ccccc1F` (centres unmarked) [Compound 482], with 207 to 208 °C.
`COc1ccccc1CC(=O)C1=C(O)C(=O)N(c2nc3c(Cl)cccc3s2)C1c1ccccc1F` (centres unmarked) [Compound 483]: the melting point was in the range of 224 to 226 °C.
Then `COc1ccccc1CC(=O)C1=C(O)C(=O)N(c2nc3ccc(Cl)cc3s2)C1c1ccc(F)cc1` (centres unmarked) [Compound 484], with 253 to 255 °C.
